From patent publication US7122326B2 (Universite Louis Pasteur, priority 2001, dated 2006)
“Also recorded” adds a separate entry of the source. Like-named read-outs stand apart in the source and are kept apart here.

Columns and labels:
[1] = tested on: xanthurenic acid binding site(s); test: [3H]-XA binding to synaptic membranes, without ions; set-up: species or system rat; conditions: for [^3H]-XA binding displacement, screening: screening at 200 μM concentration
[2] = tested on: XA transport system; test: XA transport in differentiated NCB-20 cells; type: cell-based
Description: The cell culture was prepared by using a culture dish of NCB-20 cells at 80% confluence. The culture medium was removed and replaced with 10 ml of DMEM supplemented with 10% FCS. Cells were then detached and suspended by repeated passage of the medium through a 2 mm gauge needle. Cells were then counted in a hemocytometer. The final suspension was adjusted to a cell density of 3.10^4 cells/ml in DMEM medium supplemented with 10% FCS and 1 mM cAMP. Petri dishes were seeded with 2 ml of this suspension and incubated at 37° C. in a moisture-saturated CO2 atmosphere. Cells were used four days after inoculation.
The culture medium of 4-day NCB-20 cell cultures differentiated in cAMP was replaced by one of the buffer solutions described hereinabove (Krebs with or without Na^+, to respectively evaluate Na^+-dependent active transport and passive transport, which occurs mainly through diffusion) according to the type of experiment planned. Culture dishes were placed in a water bath at 37° C. for 10 minutes. The buffer was then replaced by the same buffer solution containing [^3H]-XA and XA at concentrations ranging from […]. [^3H]-XA was present at very low concentration and served only as a tracer of the cold (non-radiolabelled) XA. After 1 minute of incubation, the solutions were aspirated and the cells washed three times for 10 seconds with 1 ml of the same buffer (Krebs with or without Na^+), kept on ice. Active transport requires energy (ATP) and is markedly slowed at temperatures below 37° C. The washed cell layer was frozen in dishes then, the next day, distilled water was added to obtain a solution of cellular debris containing the intracellular radiolabel ([^3H]-XA). Freezing facilitated homogenization by repeated passage of the solution through a pipette. A 900 μl aliquot was added to scintillation fluid (Rotiszint®, 4 ml). The remainder of the solution was sampled to assay protein by the BCA method (Uptima). The radioactivity measured in the scintillation counter was converted by means of a suitable calibration curve into picomoles of XA taken up by the cells per mg of protein.
For each incubation time, transport was measured on nine dishes of NCB-20 cells with Na^+ and without Na^+. Ten different time points were studied: 0-10-30 seconds and 1, 2, 3, 5, 8, 10, 12 minutes. Four different experiments were carried out.
For each XA concentration, XA transport was measured on nine dishes of NCB-20 cells with Na^+ and nine dishes without Na^+. Seven different concentrations were tested: 1-5-12.5-25-50-100-200 μM. Four independent experiments were carried out.
Four milliliters of scintillator were added to the tubes containing 900 μl of the cell suspension obtained. The control tube contained 900 μl of doubly-distilled water, and the tubes used to measure specific activity contained 10 μl of the radioactive solutions used as reagent during the experiment and 890 μl of doubly-distilled water. The tubes were closed, vortexed and left overnight at 4° C. before being counted in the scintillation counter. This count measures intracellular radioactivity which is directly proportional to the quantity of XA that entered the cell through passive or active transport. To calculate the amount of active transport, passive transport (Krebs without Na^+) is simply subtracted from total transport (Krebs with Na^+).
Other endogenous molecules which might be transported by the XA transporter were tested. […] The results are shown in the histogram in FIG. 34 as the percentage entering the cells relative to transport in the presence of radiolabelled XA alone (=100%).

[3] = tested on: dopaminergic neurons; test: Residual dopamine content after 6-OHDA lesion; type: in vivo, rat
[4] = tested on: XA release in the PFC; test: XA release in prefrontal cortex, in vivo microdialysis; set-up: species or system rat
Description: Male Wistar rats weighing 350–400 g were used for the experiments. Animals were housed individually in plastic cages with a light/dark cycle of 7 a.m./7 p.m. and 7 p.m./7 a.m. Animals had access to food and water ad libitum. Animal experiments were conducted in strict accordance with the requirements of the European Directive of 24 Nov. 1986 (86/609/EEC).
The experiments were carried out using an L-shaped cannula with a 4 mm tip. A polycarbonate-polyether dialysis membrane (500 μm) with a 20 Kda cutoff was used. The dialysis membrane was inserted in the prefrontal cortex (PFC) while one of the tips of the bipolar stimulation electrode was implanted in the PFC and the other in the VTA. The procedure was performed under ketamine anesthesia.
The experiments were carried out in conscious animals, 24 to 72 hours after the surgery. The perfusion medium had the following composition: 147 mM NaCl, 1.2 mM CaCl2, 1.2 mM MgCl2, and 4.0 mM KCl, pH 6.5. In the case of stimulations at high potassium concentrations, sodium ion concentrations were lowered to the same value. In the case of stimulations in the absence of calcium ions, 2.0 mM EGTA was added to the dialysis medium. Dialysates were collected at a rate of 2 μl/min, every 5 minutes, and immediately stored in liquid nitrogen up to analysis.
These two compounds were quantitatively determined by HPLC chromatography with electrochemical detection. The chromatographic system consisted of a 25 cm×4.6 mm Hypersyl C18 column, maintained at constant temperature. The mobile phase was 0.05 M NaH2PO4 buffer+0.1 mM EDTA and 6% methanol. Peaks were identified by comparison with the retention times measured on calibration standard solutions.
The VTA was stimulated for a period of 10 minutes, with bursts of thirty 0.5-msec pulses for 100 millisec, intensity 100 or 200 μA and at a frequency of 25 Hz.

[5] = tested on: rat; test: Rotations in rats with unilateral 6-OHDA lesions; type: in vivo; conditions: 6-OHDA-lesioned rats, four weeks after lesion; apomorphine s.c. (0.1 and 1.0 mg/kg)
[6] = target: xanthurenic acid binding site(s); test: Effect of ions on xanthurenic acid binding to synaptic membranes; set-up: species or system rat; conditions: read-out: EC50 of ions on xanthurenic acid binding
[7] = target: xanthurenic acid binding site(s); test: [3H]-XA binding to synaptic membranes in the presence of copper ions; set-up: species or system rat; conditions: read-out: EC50 (50% effective concentration) on XA binding; Tris maleate pH 6.5, room temperature, 400 nM [^3H]-XA (+20 μM xanthurenic acid) (FIG. 17)
[8] = unilateral 6-OHDA lesion of VTA and SNc, ±SEM (n=3)

Compound: Nc1c(O)cccc1C(=O)CC(N)C(=O)O (racemic) [3OH-D,L-kynurenin]
- [^3H]-XA binding displacement, screening [1]: None of these compounds caused significant displacement

Compound: O=CC[C@@H](O)[C@H](O)[C@H](O)CO [2-deoxyglucose]
- decrease in XA transport ([2]; cellular energy production blocked (FIG. 34)): ~50%

Compound: Nc1c(O)cccc1C(=O)O [3-hydroxyanthranilic acid]
- [^3H]-XA binding displacement, screening [1]: None of these compounds caused significant displacement

Compound: N[C@@H](Cc1c[nH]c2ccc(O)cc12)C(=O)O [5-hydroxy-L-tryptophan]
- [^3H]-XA binding displacement, screening [1]: None of these compounds caused significant displacement

Compound: Br.NCCc1cc(O)c(O)cc1O [6-OHDA, 6-hydroxydopamine hydrobromide]
- residual dopamine content, damaged VTA —SNc [3, 8]: 32±31 pmoles/g of wet tissue
- residual dopamine content, damaged striatum [3, 8]: 261±123 pmoles/g of wet tissue
- change of dopamine content, damaged versus intact striatum ([3]; unilateral 6-OHDA lesion, p=0.0033): −98%
- change of dopamine content, damaged versus intact VTA —SNc ([3]; unilateral 6-OHDA lesion, p=0.0157): −95%

Compound: [Cl-].[K+] [KCl]
- XA release in the PFC extracellular medium, % of the baseline value ([4]; 100 mM KCl in the dialysis probe for 5 minutes, after 40 minutes): 250%

Compound: Nc1ccccc1C(=O)C[C@H](N)C(=O)O [L-kynurenin]
- [^3H]-XA binding displacement, screening [1]: None of these compounds caused significant displacement

Compound: N[C@@H](Cc1c[nH]c2ccccc12)C(=O)O [L-tryptophan]
- inhibition of cellular transport of XA [2]: good inhibitors; also recorded: inhibit this transport

Compound: N[C@@H](Cc1ccc(O)cc1)C(=O)O [L-tyrosine]
- inhibition of cellular transport of XA ([2]; NCB-20 cells (FIG. 34)): good inhibitors
- inhibition of cellular transport of XA ([2]; NCB-20 cells (FIG. 34), listed as tyrosine): inhibit this transport

Compound: Nc1ncnc2nc[nH]c12 [adenine]
- affinity for the xanthurenic acid site / inhibition of tritiated XA binding [1]: showed significant affinity for the xanthurenic acid site and inhibited the binding of tritiated XA

Compound: Nc1ncnc2c1ncn2[C@@H]1O[C@H](COP(=O)(O)OP(=O)(O)O)[C@@H](O)[C@H]1O [adenosine diphosphate]
- affinity for the xanthurenic acid site / inhibition of tritiated XA binding [1]: showed significant affinity for the xanthurenic acid site and inhibited the binding of tritiated XA

Compound: Nc1ncnc2c1ncn2[C@@H]1O[C@H](COP(=O)(O)OP(=O)(O)OP(=O)(O)O)[C@@H](O)[C@H]1O [adenosine triphosphate]
- affinity for the xanthurenic acid site / inhibition of tritiated XA binding [1]: showed significant affinity for the xanthurenic acid site and inhibited the binding of tritiated XA

Compound: Nc1ncnc2c1ncn2[C@@H]1O[C@H](CO)[C@@H](O)[C@H]1O [adenosine]
- affinity for the xanthurenic acid site / inhibition of tritiated XA binding [1]: showed significant affinity for the xanthurenic acid site and inhibited the binding of tritiated XA

Compound: CN1CCc2cccc3c2[C@H]1Cc1ccc(O)c(O)c1-3 [apomorphine]
- number of controlateral rotations [5]: 130±45 turns/15 minutes

Compound: [Cl][Cu][Cl] [copper ions, CuCl2]
- EC50 ([6]; 50 mM Tris maleate pH 6.5, 0° C., 200 nM [^3H]-XA (FIG. 14)): ~100 µM
- EC50 [7]: 33.4 µM

Compound: O=C(O)c1cc(=O)c2ccccc2[nH]1 [kynurenic acid]
- inhibition of cellular transport of XA ([2]; NCB-20 cells (FIG. 34)): good inhibitors
- [^3H]-XA binding displacement, screening [1]: no displacement of [^3H]-XA from its binding site(s) but rather a potentiation of this binding

Compound: O=C(O)c1ccccn1 [picolinic acid]
- [^3H]-XA binding displacement, screening [1]: None of these compounds caused significant displacement

Compound: NC1=N[C@H](O)[C@H]2[C@H]3O[C@]4(O)O[C@@H]([C@@H](O)[C@@]2(N1)[C@@H]4O)[C@]3(O)CO [tetrodotoxin]
- XA release in PFC induced by electrical stimulation of the VTA ([4]; rat, in vivo): completely blocked

Compound: [Cl-].[Cl-].[Zn+2] [zinc ions, ZnCl2]
- EC50 ([6]; pH 6.5): ~500 µM
- potentiation of XA transport ([2]; ions present in the medium (FIG. 34)): highly significant potentiation

Compound: veratrine
- XA release in the PFC, % of baseline ([4]; 50 μM in the probe for 20 minutes, after 20 minutes): approximately 600%
